According to article PMC9958891 (2023):

Experiments:
[1] = test system: 5'-FAM-c-myc-TAMRA-3' (c-myc G4 DNA, FRET) (DNA, G4) TGAGGGTGGGTAGGGTGGGTAA; test: FRET melting; settings: K+ 100 mM, Na+ (10 mM Na3AsO4); 10 mM Tris-HCl pH 7.4; 0.2 μM DNA; compound concentration not stated; value per abstract, b23 order differs
[2] = test system: c-myc Pu22 (c-myc G4 DNA) (DNA, G4) TGAGGGTGGGTAGGGTGGGTAA; test: UV-vis absorption titration; settings: K+ 100 mM; 10 mM Tris-HCl, pH 7.2, room temperature; 20 μM complex

| ΔTm [1] | binding constant [2] | SMILES |
| --- | --- | --- |
| ~ 16.5 °C | ~ 2.05 × 10^7 M^−1 | COc1ccc(CCc2cc(OC)c(OC)c(OC)c2)cc1OCCCCn1c(-c2ccc(C(F)(F)F)cc2)nc2c3cccnc3c3ncccc3c21.[Ru+2].c1cnc2c(c1)ccc1cccnc12.c1cnc2c(c1)ccc1cccnc12 |
| ~ 15.5 °C | – | COc1ccc(CCc2cc(OC)c(OC)c(OC)c2)cc1OCCCCn1c(-c2ccccc2C(F)(F)F)nc2c3cccnc3c3ncccc3c21.[Ru+2].c1cnc2c(c1)ccc1cccnc12.c1cnc2c(c1)ccc1cccnc12 |
